Data taken from patent US8410178B2, “CIS 3,4-dihydroxy-2-(3-methylbutanoyl)-5-(3-methylbutyl)-4-(4-methylpentanoyl)cyclopent-2-en-1-derivatives, substantially enantiomerically pure compositions and methods” (KinDex Therapeutics, LLC, priority 2010, dated 2013).

Columns and labels:
THP-1 cells = test: TNF-α- and LPS-mediated inflammatory factors in THP-1 cells; type: cell-based, human; conditions: TNF-α and LPS-induced, 50, 25, 12.5 and 3.125 μM
Method: The anti-inflammatory effect of (+)-KDT501 was evaluated in human monocytic THP-1 cells.
THP-1 cells (ATCC, Manassas, Va.) were maintained in RPMI1640 in the presence of 10% serum according to manufacturer's instructions. The cells were pre-incubated with (+)-KDT501 at varying concentrations (50, 25, 12.5 and 3.125 μM) for one hour, then stimulated with TNF-α(10 ng/ml; Sigma, St. Louis, Mo.) or E. coli LPS (1 μg/ml; Sigma, St. Louis, Mo.) overnight (16-20 hours). MMP-9 levels in the medium were measured using an ELISA kit (GE Healthcare, Piscataway, N.J.), and cytokines were assayed using a Milliplex MAP human cytokine/chemokine kit (Millipore, Billerica, Mass.). Analytes were quantified using a Luminex 100™ IS. Data were analyzed using a five-parameter logistic method.

Human DAPK1 = Human DAPK1 (Homo sapiens, UniProt P53355); test: DAPK1 activity, cell free kinase assay; type: biochemical
Method: The effect of (+)-KDT501 and (−)-KDT501 on death-associated protein kinase 1 (DAPK1) activity was evaluated.
Human DAPK1 was incubated with 8 mM MOPS, pH 7.0, 0.2 mM EDTA, 250 μM ZIP peptide substrate ([…]), 10 mM MgOAc, and [γ-^33P-ATP] (specific activity approximately 500 cpm/pmol, concentration as required). (+)-KDT501 or (−)-KDT501 at varying concentrations (100, 30, 10, 1, 0.3, 0.1, 0.03, 0.01 μM) were added to the reaction mixture. The reaction was initiated by addition of the MgATP mix. After incubation for 40 minutes at room temperature, the reaction was stopped by addition of 3% phosphoric acid solution. 10 μL of reaction mixture was spotted onto a P30 filtermat, washed three times for five minutes in 75 mM phosphoric acid and once in methanol prior, then dried and subjected to scintillation counting.

[1] = test system: diet induced obese (DIO) mice; test: Glucose, insulin, HbA1C and fat mass in high fat diet-induced obesity (DIO) mouse model; type: in vivo
Method: 14 week-old male mice were randomized and divided into seven dosing groups with 16 animals in each group: 1) vehicle only (0.5% methylcellulose (w/v), 0.2% Tween 80 (w/v); negative control), 2) (+)-KDT501 25 mg/kg, 3) (+)-KDT501 50 mg/kg, 4) (+)-KDT501 100 mg/kg, 5) (+)-KDT501 200 mg/kg, 6) metformin 200 mg/kg (positive control), and 7) pioglitazone 30 mg/kg (positive control). Drugs were administered orally twice a day for 30 days.
Animals were weighed at randomization and once per week thereafter, with administration dosages calculated based on the most recent body weight measurements. The mice were maintained on a high fat diet (40% Kcal) (TD95217; prepared by Covance Laboratories, Greenfield, Ind.). Body composition was tested by qNMR on days −5 and 28 after the start of treatment. […]. An oral glucose tolerance test (OGTT) was performed on day 30 after the start of treatment. Mice underwent an overnight fast prior to OGTT, and tail bleeds for glucose and insulin were performed pre-glucose bolus and at 15, 30, 60, 90, and 120 minutes post-glucose bolus. The glucose bolus was 2 g dextrose/kg of body weight. OGTT results were evaluated by area under the curve (AUC) measurements and Dunnett's test.

[2] = test system: Zucker diabetic fatty (ZDF) rats; test: Glucose and triglyceride levels in a rat diabetes model; type: in vivo
Method: 64 six-week-old male Zucker diabetic fatty (ZDF) rats with glucose levels of 175-300 mg/dL were randomized and divided into eight dosing groups: 1) vehicle only (0.5% methylcellulose (w/v), 0.2% Tween 80 (w/v); negative control), 2) (+)-KDT501 25 mg/kg, 3) (+)-KDT501 50 mg/kg, 4) (+)-KDT501 100 mg/kg, 5) (+)-KDT501 200 mg/kg, 6) metformin 200 mg/kg (positive control), 7) metformin 200 mg/kg and (+)-KDT501 100 mg/kg, and 8) pioglitazone 30 mg/kg (positive control). Drugs were administered orally twice a day for 33 days.
Animals were weighed at randomization and once per week thereafter, with administration dosages calculated based on the most recent body weight measurements. Blood samples were collected by tail bleed three days prior to randomization, at randomization, and at days 15 and 29 after the start of treatment. These blood samples were used to perform whole blood glucose evaluations using a glucometer, as well as to measure blood triglyceride levels. Body composition was tested by qNMR on days 2 and 29 after the start of treatment. An oral glucose tolerance test (OGTT) was performed on days 31 and 32 after the start of treatment. Rats underwent an overnight fast prior to OGTT, and tail bleeds for glucose and insulin were performed pre-glucose bolus and at 15, 30, 60, 90, and 120 minutes post-glucose bolus. The glucose bolus was 2 g dextrose/kg of body weight. On day 33, a cardiac puncture was performed for PK analysis.

Human DAPK1, sequence (P53355 whole entry): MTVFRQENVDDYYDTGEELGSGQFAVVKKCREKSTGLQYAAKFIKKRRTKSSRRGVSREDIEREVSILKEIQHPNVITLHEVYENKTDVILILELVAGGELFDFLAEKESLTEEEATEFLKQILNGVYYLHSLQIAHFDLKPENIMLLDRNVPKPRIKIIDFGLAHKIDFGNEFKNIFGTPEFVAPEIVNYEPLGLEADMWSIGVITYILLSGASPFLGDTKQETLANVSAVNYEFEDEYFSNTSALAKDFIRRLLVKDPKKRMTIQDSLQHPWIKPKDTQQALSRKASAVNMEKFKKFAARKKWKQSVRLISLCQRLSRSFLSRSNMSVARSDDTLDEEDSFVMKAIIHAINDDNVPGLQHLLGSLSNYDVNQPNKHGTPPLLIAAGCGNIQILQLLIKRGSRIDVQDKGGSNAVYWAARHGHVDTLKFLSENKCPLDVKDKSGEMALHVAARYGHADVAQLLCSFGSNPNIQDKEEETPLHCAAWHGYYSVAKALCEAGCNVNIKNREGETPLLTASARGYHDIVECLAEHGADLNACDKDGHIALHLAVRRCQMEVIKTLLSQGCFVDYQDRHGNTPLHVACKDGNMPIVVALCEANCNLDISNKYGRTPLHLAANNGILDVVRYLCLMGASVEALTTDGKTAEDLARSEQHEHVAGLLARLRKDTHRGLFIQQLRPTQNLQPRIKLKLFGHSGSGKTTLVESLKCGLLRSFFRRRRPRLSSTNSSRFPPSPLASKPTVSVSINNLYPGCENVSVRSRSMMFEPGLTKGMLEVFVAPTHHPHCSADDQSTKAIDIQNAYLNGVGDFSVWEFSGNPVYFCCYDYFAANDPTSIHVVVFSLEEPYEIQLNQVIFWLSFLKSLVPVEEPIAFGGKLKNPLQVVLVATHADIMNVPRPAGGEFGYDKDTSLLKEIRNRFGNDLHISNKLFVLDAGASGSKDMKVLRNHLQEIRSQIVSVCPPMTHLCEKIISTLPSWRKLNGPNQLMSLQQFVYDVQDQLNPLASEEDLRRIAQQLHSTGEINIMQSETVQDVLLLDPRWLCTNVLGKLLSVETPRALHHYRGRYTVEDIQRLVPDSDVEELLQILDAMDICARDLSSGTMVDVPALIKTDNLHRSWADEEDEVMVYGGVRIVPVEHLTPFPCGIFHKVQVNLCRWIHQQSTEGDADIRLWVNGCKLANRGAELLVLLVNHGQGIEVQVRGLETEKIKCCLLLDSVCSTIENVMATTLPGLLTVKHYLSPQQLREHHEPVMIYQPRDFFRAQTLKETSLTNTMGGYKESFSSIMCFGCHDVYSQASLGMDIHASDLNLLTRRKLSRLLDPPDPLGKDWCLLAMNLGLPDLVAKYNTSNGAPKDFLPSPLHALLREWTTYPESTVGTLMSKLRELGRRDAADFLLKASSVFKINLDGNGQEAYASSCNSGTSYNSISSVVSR

CC(C)CCC(=O)[C@@]1(O)C(O)=C(C(=O)CC(C)C)C(=O)[C@@H]1CCC(C)C.[K] [(+)-KDT501, (+)-(4S,5R)-3,4-dihydroxy-2-(3-methylbutanoyl)-5-(3-methylbutyl)-4-(4-methylpentanoyl)cyclopent-2-en-1-one potassium salt]
expression of IL-1β (THP-1 cells): inhibited | expression of MCP-1 (THP-1 cells): inhibited | expression of MIP-1α (THP-1 cells): inhibited | expression of MMP-9 (THP-1 cells): inhibited | expression of RANTES (THP-1 cells): inhibited | fold difference in DAPK1 IC50 between the two compounds (Human DAPK1; (+)-KDT501 versus (−)-KDT501): ~15 fold | IC50 (Human DAPK1; cell free assay): 2650 nM | insulin levels from the OGTT ([1]; 200 mg/kg orally twice a day, day 30): significant decrease | blood glucose levels from the OGTT ([1]; 100 or 200 mg/kg orally twice a day, day 30): significant decrease | fat mass ([1]; 100 or 200 mg/kg orally twice a day, qNMR day 28): significant difference in fat mass versus negative control mice | HbA1C ([1]; orally twice a day, day 29, dose not specified): trend towards HbA1C inhibition | whole blood glucose levels ([2]; 200 mg/kg orally twice a day): significant decrease | triglyceride levels ([2]; 200 mg/kg orally twice a day, days 15 and 29): significant decrease | whole blood glucose levels ([2]; 25, 50, or 100 mg/kg orally twice a day): nearly the same as those observed in negative control rats
